What all share (experiment): DTP human tumour cell line panel, 48 h
Assay [1] has as its system A549.
In assay [2] the test system is BT-549.
In assay [3] the test system is CCRF-CEM.
The test system of assay [4] is COLO 205.
Assay [5] has as its system HL-60.
The subject of assay [6] is Hs-578T.
Assay [7] relates to MDA-MB-231.
The test system of assay [8] is MDA-MB-435.
Assay [9] deals with NCI/ADR-RES.
The subject of assay [10] is OVCAR-3.
Assay [11] concerns OVCAR-8.
Assay [12] deals with RPMI-8226.
Assay [13] concerns RXF 393.
The subject of assay [14] is SF-268.
The subject of assay [15] is SK-OV-3.
Assay [16] concerns SW-620.
The subject of assay [17] is T47D.
Assay [18] relates to UACC-257.
Assay [19] has as its system UO-31.
In assay [20] the test system is HOP-92.

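Test compounds were applied to cells in 96-well plates for 48 hours at 5 doses. The concentration for 50% growth inhibition is given as GI50.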 Active and inactive are the calls of the source. Cut-off read from the data, not from the text of the source: active = GI50 up to about 1.1 µM and inactive = higher.

As for `COc1ccc2oc(=N)c(C(=O)NCc3ccccc3)cc2c1`, the GI50 is 34 µM (inactive) in assay [1]; 17.7 µM (inactive) in assay [2]; 62.1 µM (inactive) in assay [3]; 31.7 µM (inactive) in assay [4]; > 100 µM (inactive) in [5]; 15.8 µM (inactive) in assay [6]. The GI50 is 23.3 µM (inactive) in assay [7]; 14.5 µM (inactive) in assay [8]; 14.9 µM (inactive) in [9]; 18.8 µM (inactive) in assay [10]; 16.7 µM (inactive) in assay [11]; 45 µM (inactive) in assay [12]. Moreover, the GI50 in assay [13] was 16.8 µM (inactive); in assay [14], 18.8 µM (inactive); in [15], 20.3 µM (inactive); in assay [16], 19 µM (inactive); in assay [17], 15 µM (inactive); in [18], 24.8 µM (inactive). In assay [19], the GI50 was 46.6 µM (inactive).
With `Cc1nc2ccccc2[nH]/c1=N/Nc1ccccc1`, the GI50 in [1] was 21.5 µM (inactive); in [2], 20.7 µM (inactive); in assay [3], 4.23 µM (inactive); in assay [4] it was 0.108 µM (active); in assay [5], 11.7 µM (inactive); in assay [20] it was 3.8 µM (inactive). The GI50 was 31.1 µM (inactive) in assay [6]; 28 µM (inactive) in assay [7]; 14.8 µM (inactive) in assay [8]; 15 µM (inactive) in [9]; 14 µM (inactive) in [10]; 20.3 µM (inactive) in assay [11]. Besides, the GI50 in assay [12] was 8.2 µM (inactive); in assay [14], 27.6 µM (inactive); in assay [16], 40.6 µM (inactive); in assay [17], 2.11 µM (inactive); in assay [18], 57.9 µM (inactive); in assay [19], 18.8 µM (inactive).
For the compound `CC(=O)O[C@@H]1[C@H]2O[C@H]2[C@H]2O[C@@]2(COC(=O)c2ccccc2)[C@H]1OC(C)=O`, the GI50 in [1], in assay [2], in assay [3], in assay [4], in assay [5] and in assay [20] was > 100 µM (inactive) throughout. The GI50 in [6] was > 100 µM (inactive); in assay [7], > 100 µM (inactive); in [8], > 100 µM (inactive); in [9] it was > 100 µM (inactive); in [10], > 100 µM (inactive); in assay [11], 71.9 µM (inactive). Also, the GI50 in assay [12], in assay [14], in assay [15], in assay [16], in [17] and in [18] was > 100 µM (inactive) in each case. The GI50 in assay [19] was > 100 µM (inactive).
As for `Clc1ccc(-c2c3nc(c(-c4ccc(Cl)cc4)c4ccc([nH]4)c(-c4ccc(Cl)cc4)c4nc(c(-c5ccc(Cl)cc5)c5ccc2[nH]5)C=C4)C=C3)cc1`, the GI50 in assay [1], in [2], in [3], in assay [4], in [5] and in assay [20] was > 100 µM (inactive) throughout. The GI50 in [6] was 40.1 µM (inactive); in [7] it was > 100 µM (inactive); in [8], > 100 µM (inactive); in [9], > 100 µM (inactive); in assay [10], > 100 µM (inactive); in assay [11], > 100 µM (inactive). Moreover, the GI50 in [12], in assay [14], in assay [15], in assay [16], in assay [17] and in assay [18] was > 100 µM (inactive) in each case. Further, in assay [19], the GI50 was > 100 µM (inactive).
`COC1=C(OC)C(=O)C(Cc2c(Cl)nc3n2CCS3)=C(C)C1=O`: the GI50 in assay [1] was 15.3 µM (inactive); in assay [2], 14.4 µM (inactive); in assay [3], 2.81 µM (inactive); in assay [4], 17.2 µM (inactive); in assay [5] it was 2.3 µM (inactive); in [6], 19.8 µM (inactive). The GI50 in assay [7] is 4.04 µM (inactive); in [8], 13.9 µM (inactive); in [9], 12.8 µM (inactive); in assay [10], 16.7 µM (inactive); in assay [11], 15.3 µM (inactive); in [12], 6.53 µM (inactive). The GI50 in assay [13] is 17.4 µM (inactive); in assay [14] it was 17.6 µM (inactive); in assay [15] it was 12.6 µM (inactive); in [16] it was 18 µM (inactive); in assay [17] it was 4.13 µM (inactive); in assay [18], 9.84 µM (inactive). The GI50 in [19] was 13.7 µM (inactive).
On to `CNn1c(-c2ccccc2)n[nH]c1=O`, for which the GI50 in assay [1], in [2], in assay [3], in assay [4], in assay [5] and in [20] was > 100 µM (inactive) each time. Also, the GI50 in assay [6], in assay [7], in assay [8], in assay [9], in assay [10] and in assay [11] was > 100 µM (inactive) throughout. The GI50 in assay [12], in [14], in [15], in assay [16], in [17] and in assay [18] was > 100 µM (inactive) each time. Besides, the GI50 in assay [19] was > 100 µM (inactive).
For `Cc1oc2c(c1C)S(=O)(=O)C(C#N)=C(N(C)C)N2`, the GI50 in [1], in [2], in assay [20], in assay [6], in assay [7] and in assay [8] was > 100 µM (inactive) throughout. The GI50 in assay [9], in assay [10], in assay [11], in [12], in assay [14] and in [15] was > 100 µM (inactive) throughout. In addition, the GI50 in [16], in [17], in assay [18] and in [19] was > 100 µM (inactive) each time.
With `CN(CCNC(=S)c1cn(C)c2c1ccc1ccccc12)CCNC(=S)c1cn(C)c2c1ccc1ccccc12`, the GI50 is 64.3 µM (inactive) in [1]; > 100 µM (inactive) in assay [2]; 17.9 µM (inactive) in [3]; > 100 µM (inactive) in [4]; 5.64 µM (inactive) in assay [20]; 69.2 µM (inactive) in assay [6]. The GI50 was 38.7 µM (inactive) in assay [7]; 96.8 µM (inactive) in assay [8]; > 100 µM (inactive) in [9]; > 100 µM (inactive) in assay [10]; > 100 µM (inactive) in [11]; 2.05 µM (inactive) in [13]. In addition, the GI50 in [14] was 74 µM (inactive); in assay [15], > 100 µM (inactive); in [16], > 100 µM (inactive); in assay [17], 3.74 µM (inactive); in [18], 46.2 µM (inactive); in assay [19], 32.1 µM (inactive).

For orientation: GI50 means the concentration at which growth is held to half of that of the control.

(Values after ChEMBL document CHEMBL1201862, “PubChem BioAssay data set” (2004).)
